{"source": "patent US9738932B2", "about": "“Biomarkers for cardiovascular side-effects induced by cox-2 inhibitory compounds” (FIRALIS SAS, priority 2005, dated 2017)", "tested_on": "mRNA expression in cardiovascular tissues", "conditions": "cynomolgus monkey, in vivo, 2 weeks", "data": [{"smiles": "Cc1ccc(-c2cc(C(F)(F)F)nn2-c2ccc(S(N)(=O)=O)cc2)cc1", "note": "[Celebrex]", "values": [{"measurement": "CYP1B1 (202436_s_at) avg fold change vs control", "result": 1.0, "unit": "fold"}, {"measurement": "CYP3A5 (214234_s_at) avg fold change vs control", "result": 1.3, "unit": "fold"}, {"measurement": "CYP11B1 (214630_at) avg fold change vs control", "result": 1.1, "unit": "fold"}, {"measurement": "ECM1 (209365_s_at) avg fold change vs control", "result": 0.9, "unit": "fold"}, {"measurement": "F2RL1 (206429_at) avg fold change vs control", "result": 1.1, "unit": "fold"}, {"measurement": "F13A1 (203305_at) avg fold change vs control", "result": 0.9, "unit": "fold"}, {"measurement": "FCGR1A (214511_x_at) avg fold change vs control", "result": 1.1, "unit": "fold"}, {"measurement": "G1P2 (205483_s_at) avg fold change vs control", "result": 1.4, "unit": "fold"}, {"measurement": "HCA127 (220040_x_at) avg fold change vs control", "result": 1.0, "unit": "fold"}, {"measurement": "HCK (208018_s_at) avg fold change vs control", "result": 1.4, "unit": "fold"}, {"measurement": "HFE (210864_x_at) avg fold change vs control", "result": 1.1, "unit": "fold"}, {"measurement": "HFE (211329_x_at) avg fold change vs control", "result": 0.7, "unit": "fold"}, {"measurement": "HFE (211332_x_at) avg fold change vs control", "result": 0.8, "unit": "fold"}, {"measurement": "HFE (211863_x_at) avg fold change vs control", "result": 0.9, "unit": "fold"}, {"measurement": "HFE (211866_x_at) avg fold change vs control", "result": 0.9, "unit": "fold"}, {"measurement": "HHL (203020_at) avg fold change vs control", "result": 1.4, "unit": "fold"}, {"measurement": "HLA-A (211528_x_at) avg fold change vs control", "result": 1.1, "unit": "fold"}, {"measurement": "HLA-A (211529_x_at) avg fold change vs control", "result": 1.2, "unit": "fold"}, {"measurement": "HLA-A (211530_x_at) avg fold change vs control", "result": 1.5, "unit": "fold"}, {"measurement": "HLA-A (215313_x_at) avg fold change vs control", "result": 1.2, "unit": "fold"}, {"measurement": "HLA-B (208729_x_at) avg fold change vs control", "result": 1.1, "unit": "fold"}, {"measurement": "HLA-B (209140_x_at) avg fold change vs control", "result": 1.1, "unit": "fold"}, {"measurement": "HLA-B (211911_x_at) avg fold change vs control", "result": 1.2, "unit": "fold"}, {"measurement": "HLA-C (208812_x_at) avg fold change vs control", "result": 1.2, "unit": "fold"}, {"measurement": "HLA-C (214459_x_at) avg fold change vs control", "result": 1.3, "unit": "fold"}, {"measurement": "HLA-C (216526_x_at) avg fold change vs control", "result": 1.2, "unit": "fold"}, {"measurement": "HLA-DMB (203932_at) avg fold change vs control", "result": 1.4, "unit": "fold"}, {"measurement": "HLA-DQA1 (212671_s_at) avg fold change vs control", "result": 2.1, "unit": "fold"}, {"measurement": "HLA-DQB1 (209823_x_at) avg fold change vs control", "result": 2.0, "unit": "fold"}, {"measurement": "HLA-DQB1 (211654_x_at) avg fold change vs control", "result": 2.0, "unit": "fold"}, {"measurement": "HLA-DQB2 (212998_x_at) avg fold change vs control", "result": 1.9, "unit": "fold"}, {"measurement": "HLA-DRA (208894_at) avg fold change vs control", "result": 1.3, "unit": "fold"}, {"measurement": "HLA-DRA (210982_s_at) avg fold change vs control", "result": 1.5, "unit": "fold"}, {"measurement": "HLA-DRB3 (209312_x_at) avg fold change vs control", "result": 1.5, "unit": "fold"}, {"measurement": "HLA-DRB6 (217362_x_at) avg fold change vs control", "result": 1.4, "unit": "fold"}, {"measurement": "HLA-E (200905_x_at) avg fold change vs control", "result": 1.1, "unit": "fold"}, {"measurement": "HLA-E (217456_x_at) avg fold change vs control", "result": 1.2, "unit": "fold"}, {"measurement": "HLA-F (204806_x_at) avg fold change vs control", "result": 1.2, "unit": "fold"}, {"measurement": "HLA-F (221875_x_at) avg fold change vs control", "result": 1.0, "unit": "fold"}, {"measurement": "ICAM1 (202638_s_at) avg fold change vs control", "result": 0.8, "unit": "fold"}, {"measurement": "ICAM1 (215485_s_at) avg fold change vs control", "result": 1.1, "unit": "fold"}, {"measurement": "ICSBP1 (204057_at) avg fold change vs control", "result": 1.6, "unit": "fold"}, {"measurement": "IFI27 (202411_at) avg fold change vs control", "result": 3.3, "unit": "fold"}, {"measurement": "IFI30 (201422_at) avg fold change vs control", "result": 1.3, "unit": "fold"}, {"measurement": "IFI44 (214453_s_at) avg fold change vs control", "result": 1.3, "unit": "fold"}, {"measurement": "IFIT1 (203153_at) avg fold change vs control", "result": 0.8, "unit": "fold"}, {"measurement": "IFIT2 (217502_at) avg fold change vs control", "result": 1.1, "unit": "fold"}, {"measurement": "IFIT4 (204747_at) avg fold change vs control", "result": 0.8, "unit": "fold"}, {"measurement": "IFITM2 (201315_x_at) avg fold change vs control", "result": 1.0, "unit": "fold"}, {"measurement": "IFITM3 (212203_x_at) avg fold change vs control", "result": 1.1, "unit": "fold"}, {"measurement": "IGF1 (209541_at) avg fold change vs control", "result": 0.9, "unit": "fold"}, {"measurement": "IGFBP4 (201508_at) avg fold change vs control", "result": 0.6, "unit": "fold"}, {"measurement": "IL1A (208200_at) avg fold change vs control", "result": 0.4, "unit": "fold"}, {"measurement": "IL2RG (204116_at) avg fold change vs control", "result": 3.8, "unit": "fold"}, {"measurement": "IL27RA (205926_at) avg fold change vs control", "result": 1.1, "unit": "fold"}, {"measurement": "INDO (210029_at) avg fold change vs control", "result": 1.6, "unit": "fold"}, {"measurement": "INPP5D (203332_s_at) avg fold change vs control", "result": 1.6, "unit": "fold"}, {"measurement": "ITGB2 (202803_s_at) avg fold change vs control", "result": 1.1, "unit": "fold"}, {"measurement": "JAK1 (214377_s_at) avg fold change vs control", "result": 0.9, "unit": "fold"}, {"measurement": "KLKB1 (206541_at) avg fold change vs control", "result": 1.1, "unit": "fold"}, {"measurement": "LCK (204890_s_at) avg fold change vs control", "result": 3.2, "unit": "fold"}, {"measurement": "LCP2 (205270_s_at) avg fold change vs control", "result": 1.9, "unit": "fold"}, {"measurement": "LILRB1 (207857_at) avg fold change vs control", "result": 1.0, "unit": "fold"}, {"measurement": "LILRB1 (211100_x_at) avg fold change vs control", "result": 1.4, "unit": "fold"}, {"measurement": "LILRB3 (208594_x_at) avg fold change vs control", "result": 1.1, "unit": "fold"}, {"measurement": "LILRB3 (210225_x_at) avg fold change vs control", "result": 1.3, "unit": "fold"}, {"measurement": "LY86 (205859_at) avg fold change vs control", "result": 1.5, "unit": "fold"}, {"measurement": "LY96 (206584_at) avg fold change vs control", "result": 1.4, "unit": "fold"}, {"measurement": "LYN (210754_s_at) avg fold change vs control", "result": 1.5, "unit": "fold"}, {"measurement": "MAF (209348_s_at) avg fold change vs control", "result": 1.3, "unit": "fold"}, {"measurement": "PCOLCE (202465_at) avg fold change vs control", "result": 0.7, "unit": "fold"}, {"measurement": "PLCL2 (216217_at) avg fold change vs control", "result": 1.0, "unit": "fold"}, {"measurement": "PLSCR1 (202446_s_at) avg fold change vs control", "result": 1.1, "unit": "fold"}, {"measurement": "PRC1 (218009_s_at) avg fold change vs control", "result": 1.1, "unit": "fold"}, {"measurement": "PRG1 (201858_s_at) avg fold change vs control", "result": 1.0, "unit": "fold"}, {"measurement": "PRG1 (201859_at) avg fold change vs control", "result": 1.2, "unit": "fold"}, {"measurement": "PTPN22 (206060_s_at) avg fold change vs control", "result": 2.5, "unit": "fold"}, {"measurement": "PTPRC (207238_s_at) avg fold change vs control", "result": 2.5, "unit": "fold"}, {"measurement": "SOCS3 (206360_s_at) avg fold change vs control", "result": 0.9, "unit": "fold"}, {"measurement": "STAT1 (209969_s_at) avg fold change vs control", "result": 2.7, "unit": "fold"}, {"measurement": "STAT1 (AFFX-HUMISGF3A/M97935_5_at) avg fold change vs control", "result": 0.9, "unit": "fold"}, {"measurement": "STAT1 (AFFX-HUMISGF3A/M97935_MA_at) avg fold change vs control", "result": 1.3, "unit": "fold"}, {"measurement": "STAT1 (AFFX-HUMISGF3A/M97935_MB_at) avg fold change vs control", "result": 1.2, "unit": "fold"}, {"measurement": "TAPBP (208829_at) avg fold change vs control", "result": 1.1, "unit": "fold"}, {"measurement": "TCTEL1 (201999_s_at) avg fold change vs control", "result": 1.0, "unit": "fold"}, {"measurement": "TLR1 (210176_at) avg fold change vs control", "result": 1.3, "unit": "fold"}, {"measurement": "TLR2 (204924_at) avg fold change vs control", "result": 0.8, "unit": "fold"}, {"measurement": "TNFAIP3 (202643_s_at) avg fold change vs control", "result": 1.5, "unit": "fold"}, {"measurement": "TNFAIP3 (202644_s_at) avg fold change vs control", "result": 1.7, "unit": "fold"}, {"measurement": "TNFSF6 (210865_at) avg fold change vs control", "result": 1.4, "unit": "fold"}, {"measurement": "TRGC2 (211144_x_at) avg fold change vs control", "result": 1.2, "unit": "fold"}, {"measurement": "TRGC2 (216920_s_at) avg fold change vs control", "result": 1.6, "unit": "fold"}, {"measurement": "VCAM1 (203868_s_at) avg fold change vs control", "result": 1.9, "unit": "fold"}, {"measurement": "XCL1 (206366_x_at) avg fold change vs control", "result": 2.0, "unit": "fold"}, {"measurement": "XCL1 (214567_s_at) avg fold change vs control", "result": 3.5, "unit": "fold"}, {"measurement": "XLKD1 (219059_s_at) avg fold change vs control", "result": 1.5, "unit": "fold"}, {"measurement": "cig5 (213797_at) avg fold change vs control", "result": 1.3, "unit": "fold"}]}]}
